The text below walks through data of US9447156B2, “Methods and compositions for inhibiting neddylation of proteins” (St. Jude Children's Research Hospital, priority 2011, dated 2016).

For orientation: Kd means the concentration at which binding is half-saturated. Low values mean tighter binding, high ones weaker binding.

Assay [1] deals with T1, hDcn1^P (Homo sapiens, UniProt Q96GG9).
T1 construct: hDcn1^P corresponds to residues 62 to the C-terminal residue 259 of hDcn1; GST (cleaved yes); made in house; host or cells: E. coli BL21(DE3)Gold
Briefly: ITC binding of Ubc12/Ube2f peptides to hDcn1^P. The conditions noted are these: Example 3. As for the experimental part: (§1) Protein samples were buffer matched by desalting over a NAP-5 column (GE Healthcare) into 50 mM Hepes, 125 mM NaCl, 1 mM BME, pH 7.0 (ITC buffer). Peptides were dissolved by weight to a final concentration of 10 mM in ITC buffer and diluted further in ITC buffer as required for the experiments. Measurements were performed using a MicroCal ITC200. hDcn1^P or yDcn1^P were placed into the sample cell at a final concentration of 400 μM at 18° C. The peptide ligands (4 mM) were constantly injected (1.5 μl). The interval time between each injection was 3 minutes and the duration of each injection was 3 seconds. For titrations involving hE1 and yE1, proteins were placed into the sample cell at a final concentration of 25 μM at 22° C. Peptide ligands (250 μM) were constantly injected (2.5 μl). The interval time between each injection was three minutes and the duration of each injection was 5 seconds. For hCul1^ctd-Rbx1:hDcn1^P binding, proteins were buffer matched by desalting over a NAP-5 column in 25 mM Tris, 0.1 M NaCl, 1 mM BME, pH 7.6. hCul1^ctd-Rbx1 was placed into the sample cell at a final concentration of 55 μM at 22° C. hDcn1^P (550 μM) was constantly injected (2.5 μl). The interval time between each injection was 3 minutes and the duration of each injection was 5 seconds. Obtained spectra were evaluated using Origin (V 7.0) to determine heats of binding and Kd values.
(§2) The affinity of various peptides for hDcn1^P, hDcn2^P, hDcn3^P, hDcn4^P, and hDcn5^P was tested using isothermal titration calorimetry as described in Example 1 and is provided in Table 29.

The target of assay [2] is T2, hDcn2^P (Homo sapiens, UniProt Q6PH85).
T2 construct: human Dcn1 family members 1-5 (also called DCUND1-DCUND5)
Briefly: ITC binding of peptides to hDcn2^P. The conditions noted are these: Example 3. As to the method:
as §1, §2

For assay [3], the target named is T3, yE1 for yNedd8 (Ula1Uba3) (Saccharomyces cerevisiae, UniProt Q99344).
T3 construct: made in house; host or cells: E. coli
T3 sequence (Q99344 1-299): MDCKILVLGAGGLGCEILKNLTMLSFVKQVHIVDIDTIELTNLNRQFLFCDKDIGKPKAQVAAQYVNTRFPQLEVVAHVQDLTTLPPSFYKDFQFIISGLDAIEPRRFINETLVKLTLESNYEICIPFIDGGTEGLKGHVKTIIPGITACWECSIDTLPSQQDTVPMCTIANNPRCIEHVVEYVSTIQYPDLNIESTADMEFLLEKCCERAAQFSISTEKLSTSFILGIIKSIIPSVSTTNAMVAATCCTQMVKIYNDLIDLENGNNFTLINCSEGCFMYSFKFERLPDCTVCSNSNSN
T3 sequence (Q12059 1-462 partner): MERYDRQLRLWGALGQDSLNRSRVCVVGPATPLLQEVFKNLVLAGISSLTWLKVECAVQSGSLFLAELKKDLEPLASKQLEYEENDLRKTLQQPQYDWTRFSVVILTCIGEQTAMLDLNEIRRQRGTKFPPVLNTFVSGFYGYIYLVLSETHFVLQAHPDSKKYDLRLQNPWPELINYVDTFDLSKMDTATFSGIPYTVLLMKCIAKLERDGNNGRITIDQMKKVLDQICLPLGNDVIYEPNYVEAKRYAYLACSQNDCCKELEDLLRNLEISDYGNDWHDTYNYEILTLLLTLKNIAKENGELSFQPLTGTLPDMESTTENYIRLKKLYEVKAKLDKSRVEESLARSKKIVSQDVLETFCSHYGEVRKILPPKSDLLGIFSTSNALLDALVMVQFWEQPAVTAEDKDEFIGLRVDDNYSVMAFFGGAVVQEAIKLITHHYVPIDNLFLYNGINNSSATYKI
Briefly: ITC binding of Ubc12 peptides to yE1. More on the design: species or system S. cerevisiae. The following applies: for ΔH / ΔS: ITC, protein yE1; for ΔH: change in enthalpy; for ΔS: change in entropy. As for the experimental part:
as §1, with “Measurements were performed using a MicroCal ITC200. hDcn1^P or yDcn1^P were placed into the sample cell at a final concentration of 400 μM at 18° C.” left out, “[…])” for “hDcn1^P (550 μM)”, “seconds.” for “seconds. Obtained spectra were evaluated using Origin (V 7.0) to determine heats of binding and Kd values.”

Assay [4] addresses T4, yDcn1^P (Saccharomyces cerevisiae, UniProt Q12395).
T4 construct: made in house; host or cells: E. coli
T4 sequence (Q12395 70-269): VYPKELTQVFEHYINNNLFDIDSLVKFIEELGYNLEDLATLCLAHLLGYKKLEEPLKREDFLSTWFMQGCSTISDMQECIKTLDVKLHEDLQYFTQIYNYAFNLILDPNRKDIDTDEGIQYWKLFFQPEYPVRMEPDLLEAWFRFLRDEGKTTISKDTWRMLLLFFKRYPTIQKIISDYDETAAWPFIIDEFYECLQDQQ
Description: ITC binding of Ubc12 peptides to yDcn1^P. Also on record: species or system S. cerevisiae. The conditions noted are these: for ΔH / ΔS: ITC, protein yDcn1^P; for ΔH: change in enthalpy; for ΔS: change in entropy. As to the method:
as §1, with “Measurements were performed using a MicroCal ITC200. hDcn1^P or yDcn1^P were placed into the sample cell at a final concentration of 400 μM at 18° C.” left out, “[…])” for “hDcn1^P (550 μM)”, “seconds.” for “seconds. Obtained spectra were evaluated using Origin (V 7.0) to determine heats of binding and Kd values.”

The target in assay [5] is T5, hDcn5^P (Homo sapiens, UniProt Q9BTE7).
T5 construct: human Dcn1 family members 1-5 (also called DCUND1-DCUND5)
T5 sequence (Q9BTE7 47-237): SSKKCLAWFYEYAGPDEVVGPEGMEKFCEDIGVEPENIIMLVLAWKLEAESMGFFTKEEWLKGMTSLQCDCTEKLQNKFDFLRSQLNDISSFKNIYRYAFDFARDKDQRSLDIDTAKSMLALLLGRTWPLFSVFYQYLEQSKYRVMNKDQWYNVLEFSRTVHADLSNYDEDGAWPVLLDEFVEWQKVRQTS
Description: ITC binding of peptides to hDcn5^P. The conditions noted are these: Table 29, peptides with amidated carboxy-terminus. As for the experimental part: as §1, with “values. […]” for “values.”

Assay [6] deals with T6, hDcn3^P (Homo sapiens, UniProt Q8IWE4).
T6 sequence (Q8IWE4 86-304): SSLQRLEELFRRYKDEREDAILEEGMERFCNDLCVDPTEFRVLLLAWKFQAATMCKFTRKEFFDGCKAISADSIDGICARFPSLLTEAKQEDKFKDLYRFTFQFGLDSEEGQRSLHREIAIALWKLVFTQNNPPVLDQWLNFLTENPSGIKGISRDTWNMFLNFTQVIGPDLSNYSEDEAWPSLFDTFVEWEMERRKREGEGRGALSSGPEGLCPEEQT
Briefly: ITC binding of peptides to hDcn3^P. As to the method: as §1, §2

No end group written: not given here. Bounds are passed on as bounds.

T2 sequence (Q6PH85 62-259): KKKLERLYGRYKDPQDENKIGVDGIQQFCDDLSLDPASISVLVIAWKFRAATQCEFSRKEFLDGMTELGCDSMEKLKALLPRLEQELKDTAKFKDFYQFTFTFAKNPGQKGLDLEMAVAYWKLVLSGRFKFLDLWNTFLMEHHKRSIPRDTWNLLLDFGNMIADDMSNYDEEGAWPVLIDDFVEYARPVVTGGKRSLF
T1 sequence (Q96GG9 62-259): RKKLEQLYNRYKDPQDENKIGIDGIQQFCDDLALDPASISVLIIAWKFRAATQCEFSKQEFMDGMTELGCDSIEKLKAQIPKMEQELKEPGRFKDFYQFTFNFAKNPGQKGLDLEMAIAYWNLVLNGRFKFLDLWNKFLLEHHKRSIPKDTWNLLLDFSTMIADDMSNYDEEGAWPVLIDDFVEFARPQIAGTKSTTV

Turning to “hUbc12Ac1-26: N-terminally acetylated peptide of residues 1-26 of human Ubc12 (Ac-MIKLFSLKQQKKEEESAGGTKGSSKK-NH2)”, the “affinity for Dcn1 (comparison in words)” value in assay [1] is “greatest affinity”. Further, in assay [2], the “affinity for Dcn2 (comparison in words)” value is reported as “greatest affinity”.
In the case of “Ac-MLKLRQLQKKKQKENENSSSIQPN-NH2 [yUbc12Ac1-24]”, in assay [1], the “affinity for Dcn1 (comparison in words)” value was “greatest affinity”. The “affinity for Dcn2 (comparison in words)” value in assay [2] is given as “greatest affinity”. Moreover, in assay [3], binding was characterised by a dissociation constant (Kd) of 0.016 µM, the ΔH is reported as −11,260 cal/mol and the ΔS is listed as −3.8 cal/mol/deg. In assay [4], the ΔH is listed as 4,145 cal/mol and the ΔS was 43.6 cal/mol/deg.
The molecule `CC[C@H](C)[C@H](NC(=O)[C@H](CCSC)NC(C)=O)C(=O)N[C@@H](CCCCN)C(=O)N[C@@H](CC(C)C)C(=O)N[C@@H](Cc1ccccc1)C(=O)N[C@@H](CO)C(=O)N[C@@H](CC(C)C)C(=O)N[C@@H](CCCCN)C(=O)N[C@@H](CCC(N)=O)C(=O)N[C@@H](CCC(N)=O)C(=O)N[C@@H](CCCCN)C(=O)N[C@@H](CCCCN)C(N)=O` [hUbc12^Ac1−12] showed a Kd in assay [5] greater than 30 µM.
As to “H-MLKLRQLQKKKQKENENSSSIQPN-NH2 [yUbc12^1-24]”, in assay [3], binding was put at a Kd of 0.07 µM, the ΔH is listed as −8,571 cal/mol and the ΔS is 2.65 cal/mol/deg. Moreover, in assay [4], the Kd is greater than 40 µM, the ΔH was 3,777 cal/mol and the ΔS is 33.4 cal/mol/deg.
In the case of “MLTLASKLKRDDGLKGSRTAATASD-NH2 [hUbe2f^1−25]”, the Kd in assay [6] (Table 29, peptides with amidated carboxy-terminus) was greater than 400 µM.
In the case of “Ac-LKLRQLQKKKQKENENSSSIQPN-NH2 [Acetyl-yUbc12^2-24]”, in assay [3], binding was characterised by a dissociation constant (Kd) of 1.58 µM, the ΔH was −9,625 cal/mol and the ΔS is on record as −7.21 cal/mol/deg. In addition, in assay [4], the Kd is greater than 37 µM, the ΔH is on record as 3,761 cal/mol and the ΔS amounted to 33.4 cal/mol/deg.
With “hUbe2fAcl-25: N-terminally acetylated human Ube2f residues 1-25 (Ac-MLTLASKLKRDDGLKGSRTAATASD-NH2)”, in assay [6] (Example 3), the “affinity for Dcn3 (comparison in words)” value is “greatest affinity” and the “binding specificity for Dcn3 over other co-E3 proteins” value was “fairly specific”.
